From patent US10538555B2, “Macrocyclic inhibitors of the PD-1/PD-L1 and CD80(B7-1)/PD-L1 protein/protein interactions” (BRISTOL-MYERS SQUIBB COMPANY, priority 2014, dated 2020)
Read-outs that look alike come from different tables or passages of the source. *1 amine or outer side, *2 acyl side, *3 side chain or, on linkers, in order; H or OH if unused. Where a SMILES comes first, the peptide text is derived from it. Bridges are numbered along the chain shown (N, C = ends). [ ]: non-standard residue; d: D form. ξ: configuration not given here. Trp(1-CH2COOH) = N[C@@H](Cc1cn(CC(=O)O)c2ccccc12)C(=O)O; Phe(3,4,5-F3) = N[C@@H](Cc1cc(F)c(F)c(F)c1)C(=O)O; Phe(3,4-F2) = N[C@@H](Cc1ccc(F)c(F)c1)C(=O)O; NMePhe(4-F) = CN[C@@H](Cc1ccc(F)cc1)C(=O)O; Phe(4-F) = N[C@@H](Cc1ccc(F)cc1)C(=O)O; d(cisHyp) = O=C(O)[C@H]1C[C@@H](O)CN1; Bta = N[C@@H](Cc1csc2ccccc12)C(=O)O; NMeIle(3ξ) = CCC(C)[C@H](NC)C(=O)O; Hyp = O=C(O)[C@@H]1C[C@@H](O)CN1; NMeF = CN[C@@H](Cc1ccccc1)C(=O)O; X1 = O=C([C@H]1COCCN1[*:1])[*:2]; dNMeF = CN[C@H](Cc1ccccc1)C(=O)O; NMeNle = CCCC[C@H](NC)C(=O)O; NMeV = CN[C@H](C(=O)O)C(C)C; dPip = O=C(O)[C@H]1CCCCN1; hSer = N[C@@H](CCO)C(=O)O; NMeA = CN[C@@H](C)C(=O)O; Orn = NCCC[C@H](N)C(=O)O; dThz = O=C(O)[C@H]1CSCN1; Dab = NCC[C@H](N)C(=O)O; Dap = NC[C@H](N)C(=O)O; ξC = NC(CS)C(=O)O; Sar = CNCC(=O)O

Biological target: T1, Human PD-L1/PD-1 (Homo sapiens, UniProt Q9NZQ7)
T1 construct: TVMV protease cleavage site (C); made in house; host or cells: HEK293T cells
Test: HTRF Human PD-L1/PD-1 binding assay (PD-1-Ig/PD-L1-His)
Conditions: PD-L1-His 10 nM, PD-1-Ig 20 nM
Procedure, shortened: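 Compound preincubated 15 min with PD-L1-His (10 nM final), then PD-1-Ig (20 nM final) added for 15 min in dPBS with 0.1% BSA and 0.05% Tween-20. Detection by Eu-cryptate anti-Ig (1 nM) and APC anti-His (20 nM) after 30 min; 665/620 nm HTRF ratio. Proteins expressed in HEK293T.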

[1] = class symbol, read-out: HTRF Human PD-L1/PD-1 Binding Assay IC50 Range

T1 sequence (Q9NZQ7 with tags, fused parts or gaps): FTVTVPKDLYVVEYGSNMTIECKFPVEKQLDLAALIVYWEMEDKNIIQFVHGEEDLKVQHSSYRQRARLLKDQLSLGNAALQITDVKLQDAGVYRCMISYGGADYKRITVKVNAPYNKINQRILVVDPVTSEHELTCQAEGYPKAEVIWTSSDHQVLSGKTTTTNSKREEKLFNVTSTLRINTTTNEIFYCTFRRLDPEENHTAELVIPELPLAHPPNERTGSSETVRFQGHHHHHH

SMILES	IC50 [1]	IC50 (read-out: HTRF Human PD-L1/PD-1 Binding Assay IC50)
CCCC[C@H]1C(=O)N2CCOC[C@@H]2C(=O)N[C@@H](CC(=O)O)C(=O)N[C@@H](C(C)C)C(=O)N(C)[C@@H](Cc2ccccc2)C(=O)N[C@@H](CCC(=O)O)C(=O)N2C[C@H](O)C[C@@H]2C(=O)N[C@@H](Cc2c[nH]c3ccccc23)C(=O)N[C@@H](Cc2ccc(O)cc2)C(=O)N[C@@H](CCOC)C(=O)N[C@H](C(=O)NCC(N)=O)CSCC(=O)N[C@@H](Cc2cc(F)c(F)c(F)c2)C(=O)N(C)[C@@H](Cc2ccccc2)C(=O)N1C [Example 10189] ({CH2CO}-[Phe(3,4,5-F3)][NMeF][NMeNle][X1]DV[NMeF]E[d(cisHyp)]WY[hSer](Me)CG-NH2; thioether N-13)	10 to 99.9 nM	–
CCCC[C@H]1C(=O)N(C)[C@@H](CCCC)C(=O)N[C@@H](CCC(=O)O)C(=O)N[C@H](C(=O)NCC(N)=O)CSCC(=O)N[C@@H](Cc2ccc(OC)cc2)C(=O)N(C)[C@@H](C)C(=O)N[C@@H](CC(=O)O)C(=O)N2CCC[C@H]2C(=O)N[C@@H](CN)C(=O)N[C@@H](CCC(=O)O)C(=O)N2C[C@H](O)C[C@H]2C(=O)N[C@@H](Cc2c[nH]c3ccccc23)C(=O)N[C@@H](CC(=O)O)C(=O)N[C@@H](Cc2c[nH]c3ccccc23)C(=O)N1C [Example 7133] ({CH2CO}-Y(Me)[NMeA]DP[Dap]E[Hyp]WDW[NMeNle][NMeNle]ECG-NH2; thioether N-14)	10 to 99.9 nM	–
CCCC[C@H]1C(=O)N(C)CC(=O)N[C@@H](CC(N)=O)C(=O)N[C@@H](C(C)C)C(=O)N(C)[C@@H](Cc2ccccc2)C(=O)N[C@@H](Cc2ccc(O)cc2)C(=O)N(C)CC(=O)N[C@@H](Cc2c[nH]c3ccccc23)C(=O)N[C@@H](Cc2ccc(O)cc2)C(=O)N[C@@H](CC(C)C)C(=O)N[C@H](C(=O)NCC(N)=O)CSCC(=O)N[C@@H](Cc2ccccc2)C(=O)N(C)[C@@H](Cc2ccccc2)C(=O)N1C [Example 3237] ({CH2CO}-F[NMeF][NMeNle][Sar]NV[NMeF]Y[Sar]WYLCG-NH2; thioether N-13)	10 to 99.9 nM	–
CCCC[C@H]1C(=O)N2C[C@H](O)C[C@@H]2C(=O)N[C@@H](CC(=O)O)C(=O)N[C@@H](C(C)C)C(=O)N(C)[C@H](Cc2ccccc2)C(=O)N[C@@H](CCCCN)C(=O)N2C[C@H](O)C[C@@H]2C(=O)N[C@@H](Cc2c[nH]c3ccccc23)C(=O)N[C@@H](Cc2ccc(O)cc2)C(=O)N[C@@H](CC(C)C)C(=O)N[C@H](C(=O)NCC(N)=O)CSCC(=O)N[C@@H](Cc2ccc(F)c(F)c2)C(=O)N(C)[C@@H](Cc2ccccc2)C(=O)N1C [Example 9295] ({CH2CO}-[Phe(3,4-F2)][NMeF][NMeNle][d(cisHyp)]DV[dNMeF]K[d(cisHyp)]WYLCG-NH2; thioether N-13)	1 to 9.9 nM	–
CCCC[C@H]1C(=O)N(C)[C@@H](CCCC)C(=O)N[C@@H](CN)C(=O)N[C@H](C(=O)NCC(N)=O)CSCC(=O)N[C@@H](Cc2ccc(O)cc2)C(=O)N(C)[C@@H](C)C(=O)N[C@@H](CC(=O)O)C(=O)N2CCC[C@H]2C(=O)N[C@@H](CN)C(=O)N[C@@H](CCC(N)=O)C(=O)N2C[C@H](O)C[C@H]2C(=O)N[C@@H](Cc2c[nH]c3ccccc23)C(=O)N[C@@H](CCN)C(=O)N[C@@H](Cc2cn(CC(=O)O)c3ccccc23)C(=O)N1C [Example 5192] ({CH2CO}-Y[NMeA]DP[Dap]Q[Hyp]W[Dab][Trp(1-CH2COOH)][NMeNle][NMeNle][Dap]CG-NH2; thioether N-14)	1 to 9.9 nM	–
CCCC[C@H]1C(=O)N2C[C@H](O)C[C@@H]2C(=O)N[C@@H](CC(=O)O)C(=O)N[C@@H](C(C)C)C(=O)N(C)[C@@H](Cc2ccccc2)C(=O)N[C@@H](CCC(=O)O)C(=O)N2CCOC[C@@H]2C(=O)N[C@@H](Cc2c[nH]c3ccccc23)C(=O)N[C@@H](Cc2ccc(O)cc2)C(=O)N[C@@H](CCCCN)C(=O)N[C@H](C(=O)NCC(N)=O)CSCC(=O)N[C@@H](Cc2cc(F)c(F)c(F)c2)C(=O)N(C)[C@@H](Cc2ccc(F)cc2)C(=O)N1C [Example 10592] ({CH2CO}-[Phe(3,4,5-F3)][NMePhe(4-F)][NMeNle][d(cisHyp)]DV[NMeF]E[X1]WYKCG-NH2; thioether N-13)	1 to 9.9 nM	–
CCCC[C@H]1C(=O)N(C)[C@@H](CCCC)C(=O)N[C@@H](CCC(=O)O)C(=O)N[C@H](C(=O)NCC(N)=O)CSCC(=O)N[C@@H](Cc2ccc(OC)cc2)C(=O)N(C)[C@@H](C)C(=O)N[C@@H](CC(=O)O)C(=O)N2CCC[C@H]2C(=O)N[C@@H](Cc2c[nH]cn2)C(=O)N[C@@H](CCCCN)C(=O)N2C[C@H](O)C[C@H]2C(=O)N[C@@H](Cc2c[nH]c3ccccc23)C(=O)N[C@@H](CCN)C(=O)N[C@@H](Cc2cn(CC(=O)O)c3ccccc23)C(=O)N1C [Example 7147] ({CH2CO}-Y(Me)[NMeA]DPHK[Hyp]W[Dab][Trp(1-CH2COOH)][NMeNle][NMeNle]ECG-NH2; thioether N-14)	1 to 9.9 nM	–
CCCC[C@H]1C(=O)N(C)[C@@H](CCCC)C(=O)N[C@@H](C)C(=O)NC(C(=O)NCC(N)=O)CSCC(=O)N[C@@H](Cc2ccc(O)cc2)C(=O)N(C)[C@@H](C)C(=O)N[C@@H](CC(N)=O)C(=O)N2CCC[C@H]2C(=O)N[C@@H](CC(N)=O)C(=O)N[C@@H](CC(C)C)C(=O)N2CCC[C@H]2C(=O)N[C@@H](Cc2c[nH]c3ccccc23)C(=O)N[C@@H](CO)C(=O)N[C@@H](Cc2csc3ccccc23)C(=O)N1C (stereo partly drawn) [Example 9133] ({CH2CO}-Y[NMeA]NPNLPWS[Bta][NMeNle][NMeNle]A[ξC]G-NH2; thioether N-14)	1 to 9.9 nM	–
CCCC[C@H]1C(=O)N2CCC[C@@H]2C(=O)N[C@@H](CC(=O)O)C(=O)N[C@@H](C(C)C)C(=O)N(C)[C@@H](Cc2ccccc2)C(=O)N[C@@H](CCC(=O)O)C(=O)N2CCCC[C@@H]2C(=O)N[C@@H](Cc2c[nH]c3ccccc23)C(=O)N[C@@H](Cc2ccc(O)cc2)C(=O)N[C@@H](CCN)C(=O)N[C@H](C(=O)NCC(N)=O)CSCC(=O)N[C@@H](Cc2cc(F)c(F)c(F)c2)C(=O)N(C)[C@@H](Cc2ccc(F)cc2)C(=O)N1C [Example 10568] ({CH2CO}-[Phe(3,4,5-F3)][NMePhe(4-F)][NMeNle][dP]DV[NMeF]E[dPip]WY[Dab]CG-NH2; thioether N-13)	1 to 9.9 nM	–
CCCC[C@H]1C(=O)N2CCC[C@@H]2C(=O)N[C@@H](CO)C(=O)N[C@@H](C(C)C)C(=O)N(C)[C@@H](Cc2ccccc2)C(=O)N[C@@H](Cc2ccc(O)cc2)C(=O)N2CSC[C@@H]2C(=O)N[C@@H](Cc2c[nH]c3ccccc23)C(=O)N[C@@H](Cc2ccc(O)cc2)C(=O)N[C@@H](CC(C)C)C(=O)N[C@H](C(=O)NCC(N)=O)CSCC(=O)N[C@@H](Cc2cc(F)c(F)c(F)c2)C(=O)N(C)[C@@H](Cc2ccccc2)C(=O)N1C [Example 10089] ({CH2CO}-[Phe(3,4,5-F3)][NMeF][NMeNle][dP]SV[NMeF]Y[dThz]WYLCG-NH2; thioether N-13)	1 to 9.9 nM	–
CCCC[C@H]1C(=O)N2CCC[C@@H]2C(=O)N[C@@H](CC(=O)O)C(=O)N[C@@H](C(C)C)C(=O)N(C)[C@@H](C(C)C)C(=O)N[C@@H](Cc2ccc(O)cc2)C(=O)N2CCCC[C@@H]2C(=O)N[C@@H](Cc2c[nH]c3ccccc23)C(=O)N[C@@H](Cc2ccc(O)cc2)C(=O)N[C@@H](CCCN)C(=O)N[C@H](C(=O)NCC(N)=O)CSCC(=O)N[C@@H](Cc2ccc(F)cc2)C(=O)N(C)[C@@H](Cc2ccccc2)C(=O)N1C [Example 9244] ({CH2CO}-[Phe(4-F)][NMeF][NMeNle][dP]DV[NMeV]Y[dPip]WY[Orn]CG-NH2; thioether N-13)	1000 to 10000 nM	–
CCCC[C@H]1C(=O)N2C[C@H](O)C[C@@H]2C(=O)N[C@@H](CC(=O)O)C(=O)N[C@@H](C(C)C)C(=O)N(C)[C@@H](Cc2ccccc2)C(=O)N[C@@H](CCC(=O)O)C(=O)N2CCOC[C@@H]2C(=O)N[C@@H](Cc2c[nH]c3ccccc23)C(=O)N[C@@H](Cc2ccc(O)cc2)C(=O)N[C@@H](CCC(N)=O)C(=O)N[C@H](C(=O)NCC(N)=O)CSCC(=O)N[C@@H](Cc2cc(F)c(F)c(F)c2)C(=O)N(C)[C@@H](Cc2ccc(F)cc2)C(=O)N1C [Example 10595] ({CH2CO}-[Phe(3,4,5-F3)][NMePhe(4-F)][NMeNle][d(cisHyp)]DV[NMeF]E[X1]WYQCG-NH2; thioether N-13)	1 to 9.9 nM	–
CCCC[C@H]1C(=O)N(C)[C@@H](CCCC)C(=O)N[C@@H](CO)C(=O)N[C@H](C(=O)NCC(N)=O)CSCC(=O)N[C@@H](Cc2ccc(O)cc2)C(=O)N(C)[C@@H](C)C(=O)N[C@@H](CC(=O)O)C(=O)N2CCC[C@H]2C(=O)N[C@@H](CO)C(=O)N[C@@H](CC(C)C)C(=O)N2C[C@H](O)C[C@H]2C(=O)N[C@@H](Cc2c[nH]c3ccccc23)C(=O)N[C@@H](CO)C(=O)N[C@@H](Cc2cn(CC(=O)O)c3ccccc23)C(=O)N1C [Example 6274] ({CH2CO}-Y[NMeA]DPSL[Hyp]WS[Trp(1-CH2COOH)][NMeNle][NMeNle]SCG-NH2; thioether N-14)	1 to 9.9 nM	–
CCCC[C@H]1C(=O)N2CCC[C@@H]2C(=O)N[C@@H](CC(=O)O)C(=O)N[C@@H](C(C)C)C(=O)N(C)[C@@H](C(C)CC)C(=O)N[C@@H](Cc2ccc(O)cc2)C(=O)N2CCCC[C@@H]2C(=O)N[C@@H](Cc2c[nH]c3ccccc23)C(=O)N[C@@H](Cc2ccc(O)cc2)C(=O)N[C@@H](CC(C)C)C(=O)N[C@H](C(=O)NCC(N)=O)CSCC(=O)N[C@@H](Cc2ccc(F)cc2)C(=O)N(C)[C@@H](Cc2ccccc2)C(=O)N1C (stereo partly drawn) [Example 9258] ({CH2CO}-[Phe(4-F)][NMeF][NMeNle][dP]DV[NMeIle(3ξ)]Y[dPip]WYLCG-NH2; thioether N-13)	–	7280 nM
CC(C)C[C@@H]1NC(=O)[C@H](Cc2ccc(O)cc2)NC(=O)[C@H](Cc2c[nH]c3ccccc23)NC(=O)[C@H]2CCCCN2C(=O)[C@H](Cc2ccc(O)cc2)NC(=O)[C@H](Cc2ccccc2)N(C)C(=O)[C@H](C(C)C)NC(=O)[C@H](CC(=O)O)NC(=O)[C@H]2CCCN2C(=O)[C@H](C)N(C)C(=O)[C@H](Cc2ccc(F)cc2)N(C)C(=O)[C@H](Cc2cc(F)c(F)c(F)c2)NC(=O)CSC[C@@H](C(=O)NCC(N)=O)NC1=O [Example 10542] ({CH2CO}-[Phe(3,4,5-F3)][NMePhe(4-F)][NMeA][dP]DV[NMeF]Y[dPip]WYLCG-NH2; thioether N-13)	1 to 9.9 nM	–
